Where a name gives a salt, the structure may show the parent alone. Read-outs that look alike come from different tables or passages of the source.
How the values were obtained:
NMDA receptor [1] = biological target: T1, NMDA receptor; test: MK801 binding inhibition (NMDA receptor antagonist activity in vitro); conditions: inhibition of MK801 binding to the NMDA receptor
T1 construct: Mean Ki; Mean Maximum effect
Procedure: (§1) NMDA receptor antagonist activity can be measured in vitro by assaying a compound's ability to inhibit binding of the receptor antagonist 10,11-dihydro-5-methyl-5H-dibenzo[a,d]-cyclohepten-5,10-imine (MK801) to the receptor. The method is described by Foster and Wong, Br. J. Pharmacol. 91, 403-409 (1987).
as §1, with “was” for “can be”, “10,11-dihdro-5-methyl-5H-dibenzo[a,d]-cyclohepten-5,10-imine” for “10,11-dihydro-5-methyl-5H-dibenzo[a,d]-cyclohepten-5,10-imine”

NMDA receptor [2] = test: NMDA trapping; assay type: cell-based; conditions: Table 4; as described in Mealing et al. 2001
From the text: Trapping data was generated as described in Mealing et al., J. Pharmacol. Exp. Therapeutics 2001, (297/3), 906-914.

Human NR1/NR2A channel = Human NR1/NR2A channel (Homo sapiens, UniProt Q05586+Q12879); test: Automated patch clamp (QPatch16) block of NR1/NR2A channel currents in CHO-1H8 cells; assay type: cell-based
Sequence of Human NR1/NR2A channel (Q12879 23-1464, other chains not shown): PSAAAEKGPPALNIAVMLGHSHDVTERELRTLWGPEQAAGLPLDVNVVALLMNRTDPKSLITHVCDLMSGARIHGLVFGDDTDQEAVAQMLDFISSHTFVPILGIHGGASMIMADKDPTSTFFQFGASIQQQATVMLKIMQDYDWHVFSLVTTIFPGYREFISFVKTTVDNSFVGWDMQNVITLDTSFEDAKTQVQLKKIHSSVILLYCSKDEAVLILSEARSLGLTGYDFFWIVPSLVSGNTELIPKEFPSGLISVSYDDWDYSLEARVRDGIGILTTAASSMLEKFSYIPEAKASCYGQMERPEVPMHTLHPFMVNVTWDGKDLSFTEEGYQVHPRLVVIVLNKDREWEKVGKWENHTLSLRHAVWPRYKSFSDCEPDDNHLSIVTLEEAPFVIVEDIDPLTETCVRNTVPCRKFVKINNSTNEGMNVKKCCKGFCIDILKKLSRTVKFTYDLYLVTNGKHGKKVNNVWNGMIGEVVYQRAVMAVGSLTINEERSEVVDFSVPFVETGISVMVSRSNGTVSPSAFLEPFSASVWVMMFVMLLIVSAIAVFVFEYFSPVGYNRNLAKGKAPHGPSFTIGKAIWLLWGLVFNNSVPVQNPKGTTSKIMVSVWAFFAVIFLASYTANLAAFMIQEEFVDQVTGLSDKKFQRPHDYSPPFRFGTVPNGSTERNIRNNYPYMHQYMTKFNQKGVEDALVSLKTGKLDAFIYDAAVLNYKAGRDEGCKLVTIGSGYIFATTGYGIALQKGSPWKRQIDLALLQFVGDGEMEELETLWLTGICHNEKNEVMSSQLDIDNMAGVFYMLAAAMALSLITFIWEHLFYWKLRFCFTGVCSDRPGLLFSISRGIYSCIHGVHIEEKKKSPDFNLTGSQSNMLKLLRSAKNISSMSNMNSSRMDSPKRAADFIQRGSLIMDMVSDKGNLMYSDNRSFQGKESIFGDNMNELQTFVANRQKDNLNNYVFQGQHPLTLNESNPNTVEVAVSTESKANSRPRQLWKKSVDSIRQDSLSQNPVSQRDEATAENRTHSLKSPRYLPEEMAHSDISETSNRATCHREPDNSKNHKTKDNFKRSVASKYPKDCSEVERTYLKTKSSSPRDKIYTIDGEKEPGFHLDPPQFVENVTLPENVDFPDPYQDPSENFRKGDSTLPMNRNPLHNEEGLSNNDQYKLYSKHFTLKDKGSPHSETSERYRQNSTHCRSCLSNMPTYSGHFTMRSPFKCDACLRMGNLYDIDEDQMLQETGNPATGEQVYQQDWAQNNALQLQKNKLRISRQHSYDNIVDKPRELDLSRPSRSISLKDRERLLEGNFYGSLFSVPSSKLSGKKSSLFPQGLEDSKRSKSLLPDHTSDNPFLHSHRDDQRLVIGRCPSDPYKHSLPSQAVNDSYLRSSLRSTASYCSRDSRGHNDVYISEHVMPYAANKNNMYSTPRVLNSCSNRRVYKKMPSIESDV
Procedure: Chinese Hamster Ovary (CHO-KI) cells were transfected with Effectene^R reagent following the manufacturer's instructions. Cells were triply transfected with plasmids pTet-Off, pTRE2-pur hNR1, and pGEN IRES Hyg-hNR2A. Transfection was done in medium containing Ham's F12, 10% FBS, 2 mM L-Glutamine, 200 μM ketamine and 2 μg/ml doxycycline. 24 hours post transfection, cells were split 1:10 into medium in which 200 μM ketamine was replaced with 20 μM MK-801. After an additional 24 hours (48 hours post transfection), antibiotic selection was performed as follows: 1 μg/ml puromycin, 500 μg/ml hygromycin, and 500 μg/ml geneticin (G418). After two weeks in the selection medium (with medium changes every 3-5 days), 15-20 clones developed in the flask. These clones were pooled and cultured for one more week. Cells were then clonally plated in two 96-well plates at 1 cell/well by limiting dilution. After three weeks, cells were trypsinized and each original 96-well plate was divided into two; one plate was cultured in the presence of 2 μg/ml doxycycline and the other was cultured for assay without doxycycline. After three days, the assay plates were screened for functional NMDAR expression by stimulating with 50 μM glycine/100 μM glutamate. Two positive clones were expanded and tested for glutamate dose response with glycine fixed at 30 μM. One clone, CHO-1H8 gave robust, dose-dependent response to glutamate and was selected for further characterization.
For routine culture, CHO-1H8 cells were maintained in Ham's F-12+2 mM L-Glutamine (PAA, E15-817), 10% FBS (Sigma, F7442), 1 μg/mL puromycin (Invitrogen A1113802), 250 μg/mL hygromycin (Invitrogen 10687010), 250 μg/mL geneticin (Invitrogen 11811-098), 1 μg/mL doxycycline (Sigma D9891), and 300 μM of the NMDA-channel blocker (R)-α-amino-6,7-dimethyl-3-(phosphonomethyl)-2-quinolinepropanoic acid (CAS 170847-87-7, Swahn et al., Bioorg. Med. Chem. Lett. 1996, 1635). Cells to be used in functional assay were grown in same medium as above, but with 1 μg/mL doxycycline replaced by 2 μg/mL tetracycline (Sigma T7660) three days before induction. Growth medium was replaced every 2-3 days, i.e. Monday-Wednesday-Friday. For induction of NMDAR expression, CHO-1H8 cells were cultured without doxycycline or tetracycline (but with CAS 170847-87-7) for 48 hours in medium prepared with Tet System-Approved FBS (BD Biosciences). […]
In order to evaluate effects of test compounds as inhibitors of NR1/NR2A channels, the channels were first activated by addition of a NMDAR agonist NMDA (Sigma, M3262) and Glycine (Merck, 3570) to the extracellular bath solution. […] NR1/NR2A currents were recorded for 12 sec after activation with 100 μM NMDA/10 μM Glycine (Icontrol). […]

[3] = Table 4, NR1/NR2A currents, cells clamped at −60 mV, activated with 100 μM NMDA/10 μM Glycine, 0.41-33.33 μM compound, read-out: Mean IC50
[4] = Table 1, read-out: MK801 Binding IC50
[5] = Table 3, listed as Ex 8, fumarate salt

CC(C)(c1ccccn1)C(N)c1cccc(F)c1.O=C(O)/C=C/C(=O)O (single isomer, unassigned; stereoisomer 2) [Example 11, 1-(3-fluorophenyl)-2-methyl-2-(pyridin-2-yl)propan-1-amine fumarate salt, stereoisomer 2]
Ki (NMDA receptor [1]; Table 3, listed as Ex 11): 2.5 µM | Mean Maximum effect (NMDA receptor [1]; Table 3, listed as Ex 11): 97% | IC50 (NMDA receptor [1]; Table 3, listed as Ex 11, read-out: Mean IC50): 4.1 µM

CC(C)(c1ccccn1)[C@@H](N)c1ccccc1 [Example 3, (S)-2-methyl-1-phenyl-2-(pyridin-2-yl)propan-1-amine]
Trapping (NMDA receptor [2]): 39% | IC50 (Human NR1/NR2A channel; [3]): 3 µM | IC50 (NMDA receptor [1]; [4]): 35 µM | Ki (NMDA receptor [1]; Table 3, listed as Ex 3): 1.8 µM | Mean Maximum effect (NMDA receptor [1]; Table 3, listed as Ex 3): 76% | IC50 (NMDA receptor [1]; Table 3, listed as Ex 3, read-out: Mean IC50): 5.7 µM

CC(C)(c1ccccn1)[C@@H](N)c1cccc(F)c1 [Example 6, (S)-1-(3-fluorophenyl)-2-methyl-2-(pyridin-2-yl)propan-1-amine]
IC50 (NMDA receptor [1]; [4]): 25 µM

CC(C)(c1ccccn1)[C@H](N)c1ccccc1 [Example 2, (R)-2-methyl-1-phenyl-2-(pyridin-2-yl)propan-1-amine]
IC50 (Human NR1/NR2A channel; [3]): 10 µM | IC50 (NMDA receptor [1]; [4]): 6.4 µM | Ki (NMDA receptor [1]; Table 3): > 7.9 µM | Mean Maximum effect (NMDA receptor [1]; Table 3): 64% | IC50 (NMDA receptor [1]; Table 3, read-out: Mean IC50): > 25 µM

CC(C)(c1ccccn1)[C@H](N)c1ccccc1 (as salt: HCl) [Example 2, (R)-2-methyl-1-phenyl-2-(pyridin-2-yl)propan-1-amine]
melting point: 188 °C

CC(C)(c1ccccn1)[C@H](N)c1cccc(F)c1 [Example 5, (R)-1-(3-fluorophenyl)-2-methyl-2-(pyridin-2-yl)propan-1-amine]
IC50 (NMDA receptor [1]; [4]): 5.5 µM

CC(C)(c1ccccn1)[C@@H](N)c1ccccc1 [Example 8, (S)-2-methyl-1-phenyl-2-(pyridine-2-yl)propan-1-amine fumarate salt]
Ki (NMDA receptor [1]; [5]): 3.2 µM | Mean Maximum effect (NMDA receptor [1]; [5]): 90% | IC50 (NMDA receptor [1]; Table 3, listed as Ex 8, fumarate salt, read-out: Mean IC50): 5.1 µM

CC(C)(c1ccccn1)C(N)c1cccc(F)c1 (racemic) [Example 4, 1-(3-fluorophenyl)-2-methyl-2-(pyridin-2-yl)propan-1-amine]
IC50 (NMDA receptor [1]; [4]): 3.3 µM

CC(C)(c1ccccn1)C(N)c1ccccc1 (racemic) [Example 1, 2-methyl-1-phenyl-2-(pyridin-2-yl)propan-1-amine]
IC50 (NMDA receptor [1]; [4]): 12 µM | Ki (NMDA receptor [1]; Table 3): 4.9 µM | Mean Maximum effect (NMDA receptor [1]; Table 3): 75% | IC50 (NMDA receptor [1]; Table 3, read-out: Mean IC50): 12 µM

N[C@H](Cc1ccccn1)c1ccccc1 (single isomer, unassigned) [Example 14, dihydrochloride, reference compound]
IC50 (Human NR1/NR2A channel): 10 µM

CC(C)(c1ccccn1)C(N)c1cccc(F)c1.O=C(O)/C=C/C(=O)O (racemic) [Example 9, 1-(3-Fluorophenyl)-2-methyl-2-(pyridin-2-yl)propan-1-amine fumarate salt, racemate]
Ki (NMDA receptor [1]; Table 3): 1.3 µM | Mean Maximum effect (NMDA receptor [1]; Table 3): 83% | IC50 (NMDA receptor [1]; Table 3, read-out: Mean IC50): 3.2 µM

CC(C)(c1ccccn1)[C@@H](N)c1ccccc1 (as salt: HCl) [Example 3, (S)-2-methyl-1-phenyl-2-(pyridin-2-yl)propan-1-amine]
melting point: 188 °C

CC(C)(c1ccccn1)C(N)c1cccc(F)c1.O=C(O)/C=C/C(=O)O (single isomer, unassigned; stereoisomer 1) [Example 10, 1-(3-fluorophenyl)-2-methyl-2-(pyridin-2-yl)propan-1-amine fumarate salt, stereoisomer 1]
Ki (NMDA receptor [1]; Table 3, listed as Ex 10): 15 µM | Mean Maximum effect (NMDA receptor [1]; Table 3, listed as Ex 10): 87% | IC50 (NMDA receptor [1]; Table 3, listed as Ex 10, read-out: Mean IC50): 25 µM

N[C@@H](Cc1ccccn1)c1ccccc1 (single isomer, unassigned) [Example 13, dihydrochloride, reference compound]
Trapping (NMDA receptor [2]): 53% | IC50 (Human NR1/NR2A channel): 6 µM | Ki (NMDA receptor [1]; Table 3): 2.9 µM | Mean Maximum effect (NMDA receptor [1]; Table 3): 89% | IC50 (NMDA receptor [1]; Table 3, read-out: Mean IC50): 6.6 µM

CC(C)(c1ccccn1)C(N)c1ccccc1 (racemic) (as salt: hydrochloride) [Example 1, 2-methyl-1-phenyl-2-(pyridin-2-yl)propan-1-amine]
melting point: 188 °C

Source: patent publication US20120277272A1, “Ethanamine Compounds and Methods of Using the Same” (priority 2008, published 2012)
